Measured values published in US8163718B2, “Nucleoside analogues containing phosphonate or phosphonamide groups” (Gilead Sciences, Inc., priority 2008, dated 2012).

Columns and labels:
Assay in all cases: Cytostatic cell culture assay (GI50), SRB
Assay type in all cases: cell-based
Hs-578 = conditions: Hs578, 120 h; 5 days incubation
Source text: (§1) The assay is based on quantification of cell counts by a colorimetric detection of the cell associated proteins. The assay relies on the ability of sulforhodamine B (SRB) to bind to protein components of cells that have been fixed to tissue-culture plates by trichloroacetic acid (TCA). SRB is a bright-pink aminoxanthene dye with two sulfonic groups that bind to basic amino-acid residues under mild acidic conditions, and dissociate under basic conditions. As the binding of SRB is stoichiometric, the amount of dye extracted from stained cells is directly proportional to the cell mass.
(§2) Cell lines: All cell lines were obtained from ATCC (Manassas, Va.). Cultivation media containing Glutamax, and trypsin were purchased from Invitrogen (Carlsbad, Calif.). Doxorubicin, Clofarabine, TCA and SRB were from Sigma-Aldrich (St. Louis, Mo.). Gemcitabine was obtained from Moravek Biochemicals (Brea, Calif.)
(§3) • 1. Trypsinize the sub-confluent cells, count them, and adjust the cell concentrations according to the cell counts listed in Table 1. • 2. Distribute the cells into the 96-well plates in 150 μL of media. Incubate the plates overnight in humidified CO2 incubator at 37° C. • 3. Fix one plate of each cell line with TCA. Discard the cultivation media from the plates by flicking them gently and add 100 ul cold 10% (vol/vol) TCA to each well. Incubate the plates at 4 degree refrigerator for 1 hour. Discard TCA from the plates by flicking them gently. Rinse plates four times in a washing basin containing tap water. Store the plates at room temperature. These plates represent cell counts on day zero. • 4. Prepare a set of medium solutions containing various concentrations of tested compounds by making 5-fold serial dilutions in 96-well plate. Add 50 μL of the diluted compounds per well. Include controls with untreated cells and cells treated with doxorubicin, clofarabine and gemcitabine. • 5. Incubate the plates for 5 days at 37° C. • 6. Fix the plates with TCA. Discard the cultivation media from the plates by flicking them gently and add 100 ul cold 10% (vol/vol) TCA to each well. Incubate the plates at 4 degree refrigerator for 1 hour. Discard TCA from the plates by flicking them gently. Rinse plates four times in a washing basin containing tap water. • 7. Remove excess water by tapping the plates face down, gently on a paper towel. Allow the plates to air-dry at room temperature. • 8. Add 100 ul of 0.057% SRB solution in 1% (vol/vol) acetic acid to each well of the plates fixed with TCA on day zero and five. Leave at room temperature for 30 minutes. • 9. Flick the plates gently to discard SRB. Rinse the plates four times with 1% (vol/vol) Acetic Acid. • 10. Store the plates at 37 degree incubator to facilitate faster drying. • 11. Once the plates are completely dry, add 200 ul of 10 mM Tris base solution (pH 10.5) to each well. Leave at room temperature for 30 minutes for SRB to solubilize. • 12. Measure the OD at 500 nm in a microplate reader • 13. Calculate the percentage of cell-growth inhibition using the next formula: % of control cell growth=100×(ODsample−mean ODday0)/(ODneg control−mean ODday0)
(§4) For GI50 determination, plot a dose-response curve between the compound concentration and percent of growth inhibition. GI50 values can be derived by fitting dose-response curves using sigmoidal dose response equation.

HCT-15 = conditions: Homo sapiens, HCT-15, 120 h; 5 days incubation
Source text: as §1, §2, §3, §4

PC3 = conditions: Homo sapiens, PC-3, 120 h; 5 days incubation
Source text: as §1, §2, §3, §4

NCI-H23 = conditions: Homo sapiens, NCI-H23, 120 h; 5 days incubation
Source text: as §1, §2, §3, §4

HCT-116 = conditions: Homo sapiens, HCT-116, 120 h; 5 days incubation
Source text: as §1, §2, §3, §4

Du-145 = conditions: Homo sapiens, DU-145, 120 h; 5 days incubation
Source text: as §1, §2, §3, §4

A549 = conditions: Homo sapiens, A549, 120 h; 5 days incubation
Source text: as §1, §2, §3, §4

BT-549 = conditions: Homo sapiens, BT-549, 120 h; 5 days incubation
Source text: as §1, §2, §3, §4

Row | GI50 (HCT-15) [nM] | GI50 (PC3) [nM] | GI50 (NCI-H23) [nM] | GI50 (HCT-116) [nM] | GI50 (Du-145) [nM] | GI50 (A549) [nM] | GI50 (BT-549) [nM] | Structure (SMILES) | GI50 (Hs-578) [nM]
1 | 8500 | 214 | 263 | 850 | 256 | 1670 | 527 | Nc1nc(NC2CC2)c2ncn(CCOCP(=O)(N3CCC[C@H]3C(=O)OCc3ccccc3)N3CCC[C@H]3C(=O)OCc3ccccc3)c2n1 [Example 51] | 96
2 | 1090 | 11 | 4 | 13 | 2 | 52 | 61 | CCCCOC(=O)[C@H](C)NP(=O)(COCCn1cnc2c(OCCC)nc(N)nc21)N[C@@H](C)C(=O)OCCCC [Example 13] | 105
3 | > 10000 | 8000 | 2620 | 22000 | 1490 | 11000 | > 10000 | COC(=O)[C@@H](C)NP(=O)(COCCn1cnc2c(OC)nc(N)nc21)N[C@H](C)C(=O)OC [Example 32] | 6600
4 | 2440 | 2480 | 639 | 3590 | 223 | 2840 | 2000 | CCOc1nc(N)nc2c1ncn2CCOCP(=O)(O)O [Example 5, [2-(2-Amino-6-ethoxy-purin-9-yl)-ethoxymethyl]-phosphonic acid] | 2590
5 | > 10000 | 121 | 38 | 194 | 35 | 640 | 116 | CCCOc1nc(N)nc2c1ncn2CCOCP(=O)(N1CCC[C@H]1C(=O)OC)N1CCC[C@H]1C(=O)OC [Example 22] | 82
6 | 1900 | 103 | 10 | 27 | 3 | 36 | 23 | CCOC(=O)[C@H](Cc1ccccc1)NP(=O)(COCCn1cnc2c(OC)nc(N)nc21)N[C@@H](Cc1ccccc1)C(=O)OCC [Example 30] | 17
7 | > 10000 | 141 | 198 | 1480 | 102 | 3190 | 2650 | CCOC(=O)[C@H](C)NP(=O)(COCCn1cnc2c(OC3CCCCC3)nc(N)nc21)N[C@@H](C)C(=O)OCC [Example 39] | 697
8 | 766 | 52 | 5 | 79 | 2 | 91 | 42 | COc1nc(N)nc2c1ncn2CCOCP(=O)(OCOC(=O)OC(C)C)OCOC(=O)OC(C)C [Example 60] | 22
9 | 2350 | 111 | 30 | 264 | 27 | 530 | 167 | CCCOc1nc(N)nc2c1ncn2CCOCP(=O)(N1CCC[C@H]1C(=O)OCc1ccccc1)N1CCC[C@H]1C(=O)OCc1ccccc1 [Example 20] | 132
10 | 2370 | 13 | 4 | 23 | 2 | 26 | 33 | CCCCOC(=O)[C@H](C)NP(=O)(COCCn1cnc2c(OC)nc(N)nc21)N[C@@H](C)C(=O)OCCCC [Example 27] | 53
11 | 10000 | 237 | 15 | 430 | 10 | 1710 | 104 | CCOC(=O)[C@H](C)NP(=O)(COCCn1cnc2c(OC3CC3)nc(N)nc21)N[C@@H](C)C(=O)OCC [Example 42] | 162
12 | 467 | 10 | 1 | 5 | 1 | 4 | 53 | CCCOc1nc(N)nc2c1ncn2CCOCP(=O)(N[C@@H](Cc1ccccc1)C(=O)OCC(C)C)N[C@@H](Cc1ccccc1)C(=O)OCC(C)C [Example 19] | 5
13 | 2530 | 1380 | 551 | 2440 | 177 | 2980 | 2480 | CC(C)Oc1nc(N)nc2c1ncn2CCOCP(=O)(O)O [Example 3, [2-(2-Amino-6-isopropoxy-purin-9-yl)-ethoxymethyl]-phosphonic acid] | 2450
14 | 5100 | 3 | 2 | 109 | 1 | 368 | 50 | CCCCOC(=O)[C@H](C)NP(=O)(COCCn1cnc2c(OCCOC)nc(N)nc21)N[C@@H](C)C(=O)OCCCC [Example 49] | 25
15 | > 10000 | 146 | 31 | 509 | 23 | 458 | 292 | CCOC(=O)[C@H](C)NP(=O)(COCCn1cnc2c(OCC)nc(N)nc21)N[C@@H](C)C(=O)OCC [Example 37] | 198
16 | 886 | 1100 | 287 | 1100 | 76 | 1240 | 900 | CCCOc1nc(N)nc2c1ncn2CCOCP(=O)(O)O [Example 1, [2-(2-Amino-6-propoxy-purin-9-yl)-ethoxymethyl]-phosphonic acid] | 3810
17 | 869 | 3 | 2 | 7 |  | 13 | 120 | CCCCOC(=O)[C@H](C)NP(=O)(COCCn1cnc2c(OCCCC)nc(N)nc21)N[C@@H](C)C(=O)OCCCC [Example 36] | 11
18 | 1520 | 32 | 1 | 11 |  | 102 | 17 | CCCCOC(=O)[C@H](C)NP(=O)(COCCn1cnc2c(OC3CC3)nc(N)nc21)N[C@@H](C)C(=O)OCCCC [Example 43] | 32

Row | Structure (SMILES) | GI50 (HCT-15) [nM] | GI50 (PC3) [nM] | GI50 (NCI-H23) [nM] | GI50 (HCT-116) [nM] | GI50 (Du-145) [nM] | GI50 (A549) [nM] | GI50 (BT-549) [nM] | GI50 (Hs-578) [nM]
19 | CCCOc1nc(N)nc2c1ncn2CCOCP(=O)(N[C@@H](C)C(=O)OC(C)C)Oc1ccccc1 (stereo partly drawn) [Example 54] | 2770 | 472 | 67 | 840 | 65 | 317 | 1770 | 894
20 | CCCCOC(=O)[C@H](C)NP(=O)(COCCn1cnc2c(OC3CC3)nc(N)nc21)Oc1ccccc1 (stereo partly drawn) [Example 58] | 1030 | 60 | 3 | 114 | 1 | 204 | 585 | 42
21 | CCCOc1nc(N)nc2c1ncn2CCOCP(=O)(Oc1ccccc1)N1CCC[C@H]1C(=O)OCc1ccccc1 (stereo partly drawn) [Example 56] | 3860 | 1250 | 389 | 1930 | 722 | 2130 | 1090 | 1490
22 | CCCOc1nc(N)nc2c1ncn2CCOCP(=O)(Oc1ccc(Cl)cc1)N1CCC[C@H]1C(=O)OCC (stereo partly drawn) [Example 62] | 10000 | 44 | 49 | 2790 | 1 | 1870 | 4440 | 1070
